Laboratory results from patent publication US10189816B2, “Substituted pyridines as inhibitors of human immunodeficiency virus replication” (priority 2015, dated 2019).
Where two headings read alike, the source gives them in different places.

Tested on: NL-RLuc virus
Test: Inhibition of HIV replication (NL-RLuc reporter virus in MT-2 cells, luciferase readout)
Assay type: cell-based
Details: Human immunodeficiency virus 1, MT2, 120 h
In short: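 MT-2 cells infected with NL4-3-derived NL-RLuc reporter virus (Renilla luciferase replacing part of nef) with serial compound dilutions, RPMI 1640 + 10% FBS; 5 days. Growth by luciferase; EC50 from median effect equation, ≥2 experiments.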

Structure (SMILES)	EC50 (read-out: Activity)	EC50 (read-out: EC50 μM)
Cc1cc(C)c(CN2CCc3cc(-c4c(C)nc(C)c([C@H](OC(C)(C)C)C(=O)O)c4N4CCC(C)(C)CC4)ccc3C2)cc1C [Compound 78, (S)-2-(tert-butoxy)-2-(4-(4,4-dimethylpiperidin-1-yl)-2,6-dimethyl-5-(2-(2,4,5-trimethylbenzyl)-1,2,3,4-tetrahydroisoquinolin-6-yl)pyridin-3-yl)acetic acid]	< 0.1 µM	
Cc1cc(C)cc(CN2CCc3cc(-c4c(C)nc(C)c([C@H](OC(C)(C)C)C(=O)O)c4N4CCC(C)(C)CC4)ccc3C2)c1 [Compound 79, (S)-2-(tert-butoxy)-2-(5-(2-(3,5-dimethylbenzyl)-1,2,3,4-tetrahydroisoquinolin-6-yl)-4-(4,4-dimethylpiperidin-1-yl)-2,6-dimethylpyridin-3-yl)acetic acid]	< 0.1 µM	
Cc1cccc(CN2CCc3cc(-c4c(C)nc(C)c([C@H](OC(C)(C)C)C(=O)O)c4N4CCC(C)(C)CC4)ccc3C2)c1C [Compound 80, (S)-2-(tert-butoxy)-2-(5-(2-(2,3-dimethylbenzyl)-1,2,3,4-tetrahydroisoquinolin-6-yl)-4-(4,4-dimethylpiperidin-1-yl)-2,6-dimethylpyridin-3-yl)acetic acid]	< 0.1 µM	0.003 µM
Cc1nc(C)c([C@H](OC(C)(C)C)C(=O)O)c(N2CCC(C)(C)CC2)c1-c1ccc2c(c1)CCN(Cc1cccc(C(C)(C)C)c1)C2 [Compound 81, (S)-2-(tert-butoxy)-2-(5-(2-(3-(tert-butyl)benzyl)-1,2,3,4-tetrahydroisoquinolin-6-yl)-4-(4,4-dimethylpiperidin-1-yl)-2,6-dimethylpyridin-3-yl)acetic acid]	< 0.1 µM	
Cc1nc(C)c([C@H](OC(C)(C)C)C(=O)O)c(N2CCC(C)(C)CC2)c1-c1ccc2c(c1)CCN(Cc1cccc(F)c1C)C2 [Compound 82, (S)-2-(tert-butoxy)-2-(4-(4,4-dimethylpiperidin-1-yl)-5-(2-(3-fluoro-2-methylbenzyl)-1,2,3,4-tetrahydroisoquinolin-6-yl)-2,6-dimethylpyridin-3-yl)acetic acid]	< 0.1 µM	
COc1cc(F)c(CN2CCc3cc(-c4c(C)nc(C)c([C@H](OC(C)(C)C)C(=O)O)c4N4CCC(C)(C)CC4)ccc3C2)cc1F [Compound 83, (S)-2-(tert-butoxy)-2-(5-(2-(2,5-difluoro-4-methoxybenzyl)-1,2,3,4-tetrahydroisoquinolin-6-yl)-4-(4,4-dimethylpiperidin-1-yl)-2,6-dimethylpyridin-3-yl)acetic acid]	< 0.1 µM	
Cc1nc(C)c([C@H](OC(C)(C)C)C(=O)O)c(N2CCC(C)(C)CC2)c1-c1ccc2c(c1)CCN(Cc1cc(Cl)cc(Cl)c1OCc1ccccc1)C2 [Compound 85, (S)-2-(5-(2-(2-(benzyloxy)-3,5-dichlorobenzyl)-1,2,3,4-tetrahydroisoquinolin-6-yl)-4-(4,4-dimethylpiperidin-1-yl)-2,6-dimethylpyridin-3-yl)-2-(tert-butoxy)acetic acid]	< 0.1 µM	
COc1cc(F)c(F)cc1CN1CCc2cc(-c3c(C)nc(C)c([C@H](OC(C)(C)C)C(=O)O)c3N3CCC(C)(C)CC3)ccc2C1 [Compound 86, (S)-2-(tert-butoxy)-2-(5-(2-(4,5-difluoro-2-methoxybenzyl)-1,2,3,4-tetrahydroisoquinolin-6-yl)-4-(4,4-dimethylpiperidin-1-yl)-2,6-dimethylpyridin-3-yl)acetic acid]	< 0.1 µM	
COc1ccc(F)c(F)c1CN1CCc2cc(-c3c(C)nc(C)c([C@H](OC(C)(C)C)C(=O)O)c3N3CCC(C)(C)CC3)ccc2C1 [Compound 87, (S)-2-(tert-butoxy)-2-(5-(2-(2,3-difluoro-6-methoxybenzyl)-1,2,3,4-tetrahydroisoquinolin-6-yl)-4-(4,4-dimethylpiperidin-1-yl)-2,6-dimethylpyridin-3-yl)acetic acid]	< 0.1 µM	
Cc1nc(C)c([C@H](OC(C)(C)C)C(=O)O)c(N2CCC(C)(C)CC2)c1-c1ccc2c(c1)CCN(Cc1ccccc1OCCO)C2 [Compound 88, (S)-2-(tert-butoxy)-2-(4-(4,4-dimethylpiperidin-1-yl)-5-(2-(2-(2-hydroxyethoxy)benzyl)-1,2,3,4-tetrahydroisoquinolin-6-yl)-2,6-dimethylpyridin-3-yl)acetic acid]	< 0.1 µM	0.012 µM
CCOc1cc(Cl)cc(Cl)c1CN1CCc2cc(-c3c(C)nc(C)c([C@H](OC(C)(C)C)C(=O)O)c3N3CCC(C)(C)CC3)ccc2C1 [Compound 90, (S)-2-(tert-butoxy)-2-(5-(2-(2,4-dichloro-6-ethoxybenzyl)-1,2,3,4-tetrahydroisoquinolin-6-yl)-4-(4,4-dimethylpiperidin-1-yl)-2,6-dimethylpyridin-3-yl)acetic acid]	< 0.1 µM	
COc1ccc(CN2CCc3cc(-c4c(C)nc(C)c([C@H](OC(C)(C)C)C(=O)O)c4N4CCC(C)(C)CC4)ccc3C2)c(Cl)c1Cl [Compound 91, (S)-2-(tert-butoxy)-2-(5-(2-(2,3-dichloro-4-methoxybenzyl)-1,2,3,4-tetrahydroisoquinolin-6-yl)-4-(4,4-dimethylpiperidin-1-yl)-2,6-dimethylpyridin-3-yl)acetic acid]	< 0.1 µM	
COc1ccc(F)c(CN2CCc3cc(-c4c(C)nc(C)c([C@H](OC(C)(C)C)C(=O)O)c4N4CCC(C)(C)CC4)ccc3C2)c1F [Compound 92, (S)-2-(tert-butoxy)-2-(5-(2-(2,6-difluoro-3-methoxybenzyl)-1,2,3,4-tetrahydroisoquinolin-6-yl)-4-(4,4-dimethylpiperidin-1-yl)-2,6-dimethylpyridin-3-yl)acetic acid]	< 0.1 µM	
COc1cc(CN2CCc3cc(-c4c(C)nc(C)c([C@H](OC(C)(C)C)C(=O)O)c4N4CCC(C)(C)CC4)ccc3C2)c(F)cc1Cl [Compound 93, (S)-2-(tert-butoxy)-2-(5-(2-(4-chloro-2-fluoro-5-methoxybenzyl)-1,2,3,4-tetrahydroisoquinolin-6-yl)-4-(4,4-dimethylpiperidin-1-yl)-2,6-dimethylpyridin-3-yl)acetic acid]	< 0.1 µM	
COc1cc(CN2CCc3cc(-c4c(C)nc(C)c([C@H](OC(C)(C)C)C(=O)O)c4N4CCC(C)(C)CC4)ccc3C2)c(F)cc1F [Compound 94, (S)-2-(tert-butoxy)-2-(5-(2-(2,4-difluoro-5-methoxybenzyl)-1,2,3,4-tetrahydroisoquinolin-6-yl)-4-(4,4-dimethylpiperidin-1-yl)-2,6-dimethylpyridin-3-yl)acetic acid]	< 0.1 µM	
COc1c(F)cc(CN2CCc3cc(-c4c(C)nc(C)c([C@H](OC(C)(C)C)C(=O)O)c4N4CCC(C)(C)CC4)ccc3C2)cc1F [Compound 95, (S)-2-(tert-butoxy)-2-(5-(2-(3,5-difluoro-4-methoxybenzyl)-1,2,3,4-tetrahydroisoquinolin-6-yl)-4-(4,4-dimethylpiperidin-1-yl)-2,6-dimethylpyridin-3-yl)acetic acid]	< 0.1 µM	
Cc1nc(C)c([C@H](OC(C)(C)C)C(=O)O)c(N2CCC(C)(C)CC2)c1-c1ccc2c(c1)CCN(Cc1cc(F)cc(F)c1F)C2 [Compound 96, (S)-2-(tert-butoxy)-2-(4-(4,4-dimethylpiperidin-1-yl)-2,6-dimethyl-5-(2-(2,3,5-trifluorobenzyl)-1,2,3,4-tetrahydroisoquinolin-6-yl)pyridin-3-yl)acetic acid]	< 0.1 µM	0.003 µM
COc1ccc(CN2CCc3cc(-c4c(C)nc(C)c([C@H](OC(C)(C)C)C(=O)O)c4N4CCC(C)(C)CC4)ccc3C2)cc1F [Compound 97, (S)-2-(tert-butoxy)-2-(4-(4,4-dimethylpiperidin-1-yl)-5-(2-(3-fluoro-4-methoxybenzyl)-1,2,3,4-tetrahydroisoquinolin-6-yl)-2,6-dimethylpyridin-3-yl)acetic acid]	< 0.1 µM	
COc1c(CN2CCc3cc(-c4c(C)nc(C)c([C@H](OC(C)(C)C)C(=O)O)c4N4CCC(C)(C)CC4)ccc3C2)cccc1C(F)(F)F [Compound 98, (S)-2-(tert-butoxy)-2-(4-(4,4-dimethylpiperidin-1-yl)-5-(2-(2-methoxy-3-(trifluoromethyl)benzyl)-1,2,3,4-tetrahydroisoquinolin-6-yl)-2,6-dimethylpyridin-3-yl)acetic acid]	< 0.1 µM	
COc1ccc(Cl)cc1CN1CCc2cc(-c3c(C)nc(C)c([C@H](OC(C)(C)C)C(=O)O)c3N3CCC(C)(C)CC3)ccc2C1 [Compound 99, (S)-2-(tert-butoxy)-2-(5-(2-(5-chloro-2-methoxybenzyl)-1,2,3,4-tetrahydroisoquinolin-6-yl)-4-(4,4-dimethylpiperidin-1-yl)-2,6-dimethylpyridin-3-yl)acetic acid]	< 0.1 µM	
COc1cc(Cl)cc(CN2CCc3cc(-c4c(C)nc(C)c([C@H](OC(C)(C)C)C(=O)O)c4N4CCC(C)(C)CC4)ccc3C2)c1 [Compound 100, (S)-2-(tert-butoxy)-2-(5-(2-(3-chloro-5-methoxybenzyl)-1,2,3,4-tetrahydroisoquinolin-6-yl)-4-(4,4-dimethylpiperidin-1-yl)-2,6-dimethylpyridin-3-yl)acetic acid]	< 0.1 µM	
COc1cc(CN2CCc3cc(-c4c(C)nc(C)c([C@H](OC(C)(C)C)C(=O)O)c4N4CCC(C)(C)CC4)ccc3C2)ccc1F [Compound 101, (S)-2-(tert-butoxy)-2-(4-(4,4-dimethylpiperidin-1-yl)-5-(2-(4-fluoro-3-methoxybenzyl)-1,2,3,4-tetrahydroisoquinolin-6-yl)-2,6-dimethylpyridin-3-yl)acetic acid]	< 0.1 µM	
Cc1nc(C)c([C@H](OC(C)(C)C)C(=O)O)c(N2CCC(C)(C)CC2)c1-c1ccc2c(c1)CCN(Cc1ccc(OC(F)(F)F)cc1)C2 [Compound 102, (S)-2-(tert-butoxy)-2-(4-(4,4-dimethylpiperidin-1-yl)-2,6-dimethyl-5-(2-(4-(trifluoromethoxy)benzyl)-1,2,3,4-tetrahydroisoquinolin-6-yl)pyridin-3-yl)acetic acid]	< 0.1 µM	
